Source: patent publication US8691855B2, “Compounds, isomer thereof, or pharmaceutically acceptable salts thereof as vanilloid receptor antagonist and pharmaceutical compositions containing the same” (Amorepacific Corporation, priority 2008, dated 2014)

target: T1, vanilloid receptor (Rattus norvegicus, UniProt O35433); experiment: 45Ca influx test (antagonist calcium uptake test) in rat DRG neurons stimulated with capsaicin; type: cell-based; conditions: DRG neuron; @1 μM; neonatal SD rat DRG neurons; capsaicin 0.5 μM; read-out: Antagonist Calcium Uptake Test, percent inhibition of capsaicin response
T1 construct: DRG nerve cells from the primary culture of 2 days were equilibrated; endogenous in cells; host or cells: primary culture of dorsal root ganglion neurons from neonatal SD rats
Method: 1) Separation of spinal dorsal root ganglia (DRG) in newborn rats and primary culture thereof
Neonatal (2-3 clay old or younger than 2-3 day old) SD rats were put in ice for 5 minutes to anesthetize and disinfected with 70% ethanol. DRG of all part of spinal cord were dissected (Wood et al., 1988, J. Neurosci. 8, pp 3208-3220) and collected in DME/F12 medium to which 1.2 g/l sodium bicarbonate and 50 mg/l gentamycin were added. The DRG were incubated sequentially at 37° C. for 30 mins in 200 U/ml collagenase and 2.5 mg/ml trypsin, separately. The ganglia were washed twice with DME/F12 medium supplemented with 10% horse serum, triturated through a fire-polished Pasteur pipette, filtered through Nitex 80 membrane to obtain single cell suspension and the suspension was washed once more. This was subjected to centrifugation, then resuspended in cell culture medium at certain level of cell density. As the cell culture medium, DME/F12 medium supplemented with 10% horse serum was diluted with identical medium conditioned by C6 glioma cells 2 clays on a confluent monolayer (1:1), and NGF (Nerve Growth Factor) was added to adjust 200 ng/ml as final concentration. After the cells were grown 2 days in medium where cytosine arabinoside (Ara-C, 100 μM) was added to kill dividing nonneuronal cells, medium was changed to one without Ara-C. The resuspended cells were plated at a density of 1500-2000 neurons/well onto Terasaki plates previously coated with 10 μg/ml poly-D-ornithine.
2) ^45Ca Influx Experiments
DRG nerve cells from the primary culture of 2 days were equilibrated by washing 4 times with HEPES (10 mM, pH 7.4)-buffered Ca^2+, Mg^2+-free HBSS (H-HBSS). The solution in each well was removed from the individual well. Medium containing the test compound plus capsaicin (final concentration 0.5 μM) and ^45Ca (final concentration 10 μCi/ml) in H-HBSS was added to each well and incubated at room temperature for 10 nuns. Terasaki plates were washed five times with H-HBSS and dried at room temperature. To each well, 0.3% SDS (10 μl) was added to elute ^45Ca. After the addition of scintillation cocktail of into each well, the amount of ^45Ca influx into neuron was measured by counting radioactivity. Antagonistic activities of test compounds against vanilloid receptor were calculated as percent of the inhibition of maximal response of capsaicin at a concentration of 0.5 μM.

T1 sequence (O35433 whole entry): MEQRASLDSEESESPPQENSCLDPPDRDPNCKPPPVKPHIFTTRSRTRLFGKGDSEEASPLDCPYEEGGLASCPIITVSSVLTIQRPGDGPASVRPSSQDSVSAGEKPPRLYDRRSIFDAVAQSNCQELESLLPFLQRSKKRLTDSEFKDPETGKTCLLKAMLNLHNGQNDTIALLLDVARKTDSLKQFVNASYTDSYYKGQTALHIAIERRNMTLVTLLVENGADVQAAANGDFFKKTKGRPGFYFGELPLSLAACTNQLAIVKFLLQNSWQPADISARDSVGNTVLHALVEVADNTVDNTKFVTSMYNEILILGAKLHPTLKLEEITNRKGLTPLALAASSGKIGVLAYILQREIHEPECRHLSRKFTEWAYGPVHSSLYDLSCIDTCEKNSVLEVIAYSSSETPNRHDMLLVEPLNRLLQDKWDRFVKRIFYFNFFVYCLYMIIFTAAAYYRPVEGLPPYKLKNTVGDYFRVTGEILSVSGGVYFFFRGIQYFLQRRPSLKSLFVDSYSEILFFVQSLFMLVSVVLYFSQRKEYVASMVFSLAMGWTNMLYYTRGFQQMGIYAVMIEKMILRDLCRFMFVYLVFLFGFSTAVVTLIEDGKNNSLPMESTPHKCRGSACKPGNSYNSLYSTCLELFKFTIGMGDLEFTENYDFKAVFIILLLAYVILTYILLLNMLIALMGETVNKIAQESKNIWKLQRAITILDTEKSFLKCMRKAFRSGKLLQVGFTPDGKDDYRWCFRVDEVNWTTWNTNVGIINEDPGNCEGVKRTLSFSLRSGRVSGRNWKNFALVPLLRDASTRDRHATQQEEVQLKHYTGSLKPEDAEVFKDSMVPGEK

| inhibition at 1 µM | SMILES |
| --- | --- |
| 74% | C[C@@H](NC(=O)c1coc(Oc2cccc3c2CCCC3)n1)c1cc(F)c(NS(C)(=O)=O)c(F)c1 (stereo in doubt) [Example 55, 2-(5,6,7,8-Tetrahydro-naphthalen-1-yloxy)-oxazole-4-carboxylic acid [1-(3,5-difluoro-4-methanesulfonylamino-phenyl)-ethyl]-amide] |

same assay, conditions: DRG neuron; @10 μM; neonatal SD rat DRG neurons; capsaicin 0.5 μM; read-out: Antagonist Calcium Uptake Test, percent inhibition of capsaicin response

| inhibition at 10 µM | SMILES |
| --- | --- |
| 67% | C[C@@H](NC(=O)c1csc(Cc2cccc(C(F)(F)F)c2)n1)c1cc(F)c(NS(C)(=O)=O)c(F)c1 (stereo in doubt) [Example 20, 2-(3-Trifluoromethyl-benzyl)-thiazole-4-carboxylic acid [1-(3,5-difluoro-4-methanesulfonylamino-phenyl)-ethyl]-amide] |

same assay, conditions: neonatal SD rat DRG neurons; capsaicin 0.5 μM; 45Ca

| IC50 | SMILES |
| --- | --- |
| 0.4 µM | C[C@@H](NC(=O)c1coc(Oc2cccc3c2OC(C)(C)C3)n1)c1cc(F)c(NS(C)(=O)=O)c(F)c1 (stereo in doubt) [Example 34, 2-(2,2-Dimethyl-2,3-dihydro-benzofuran-7-yloxy)-oxazole-4-carboxylic acid [1-(3,5-difluoro-4-methanesulfonylamino-phenyl)-ethyl]-amide] |
| 1.7 µM | COc1cccc(-c2nc(C(=O)N[C@H](C)c3cc(F)c(NS(C)(=O)=O)c(F)c3)co2)c1 (stereo in doubt) [Example 68, 2-(3-Methoxy-phenyl)-oxazole-4-carboxylic acid [1-(3,5-difluoro-4-methanesulfonylamino-phenyl)-ethyl]-amide] |
| 7.4 µM | C[C@@H](NC(=O)c1coc(-c2ccccc2Cl)n1)c1cc(F)c(NS(C)(=O)=O)c(F)c1 (stereo in doubt) [Example 84, 2-(2-Chloro-phenyl)-oxazole-4-carboxylic acid [1-(3,5-difluoro-4-methanesulfonylamino-phenyl)-ethyl]-amide] |
| 0.49 µM | CC(C)c1ccccc1Oc1nc(C(=O)N[C@H](C)c2cc(F)c(NS(C)(=O)=O)c(F)c2)co1 [Example 3, 2-(2-Isopropyl-phenoxy)-oxazole-4-carboxylic acid [1-(3,5-difluoro-4-methanesulfonylamino-phenyl)-ethyl]-amide] |
| 3.6 µM | CC(C)c1ccc(Oc2nc(C(=O)N[C@H](C)c3cc(F)c(NS(C)(=O)=O)c(F)c3)co2)cc1 [Example 5, 2-(4-Isopropyl-phenoxy)-oxazole-4-carboxylic acid [1-(3,5-difluoro-4-methanesulfonylamino-phenyl)-ethyl]-amide] |
| 5 µM | C[C@@H](NC(=O)c1coc(Oc2ccc(C(F)(F)F)cc2)n1)c1cc(F)c(NS(C)(=O)=O)c(F)c1 [Example 6, 2-(4-Trifluoromethyl-phenoxy)-oxazole-4-carboxylic acid [1-(3,5-difluoro-4-methanesulfonylamino-phenyl)-ethyl]-amide] |
| 4.3 µM | C[C@@H](NC(=O)c1coc(Oc2ccc(C(C)(C)C)cc2)n1)c1cc(F)c(NS(C)(=O)=O)c(F)c1 [Example 7, 2-(4-tert-Butyl-phenoxy)-oxazole-4-carboxylic acid [1-(3,5-difluoro-4-methanesulfonylamino-phenyl)-ethyl]-amide] |
| 2.7 µM | CCN(CC)c1cccc(Oc2nc(C(=O)N[C@H](C)c3cc(F)c(NS(C)(=O)=O)c(F)c3)co2)c1 [Example 8, 2-(3-Diethylamino-phenoxy)-oxazole-4-carboxylic acid [1-(3,5-difluoro-4-methanesulfonylamino-phenyl)-ethyl]-amide] |
| 0.44 µM | CC(C)c1cccc(Oc2nc(C(=O)NCc3cc(F)c(NS(C)(=O)=O)c(F)c3)co2)c1 [Example 9, 2-(3-Isopropyl-phenoxy)-oxazole-4-carboxylic acid 3,5-difluoro-4-methanesulfonylamino-benzylamide] |
| 0.6 µM | C[C@@H](NC(=O)c1coc(Oc2cccc(Br)c2)n1)c1cc(F)c(NS(C)(=O)=O)c(F)c1 [Example 15, 2-(3-Bromo-phenoxy)-oxazole-4-carboxylic acid [1-(3,5-difluoro-4-methanesulfonylamino-phenyl)-ethyl]-amide] |
| 0.77 µM | C[C@@H](NC(=O)c1coc(Oc2cccc(Cl)c2)n1)c1cc(F)c(NS(C)(=O)=O)c(F)c1 [Example 16, 2-(3-Chloro-phenoxy)-oxazole-4-carboxylic acid [1-(3,5-difluoro-4-methanesulfonylamino-phenyl)-ethyl]-amide] |
| > 10 µM | C[C@@H](NC(=O)c1coc(Oc2cccc(C#N)c2)n1)c1cc(F)c(NS(C)(=O)=O)c(F)c1 [Example 17, 2-(3-Cyano-phenoxy)-oxazole-4-carboxylic acid [1-(3,5-difluoro-4-methanesulfonylamino-phenyl)-ethyl]-amide] |
| 2.9 µM | C[C@@H](NC(=O)c1coc(Oc2cccc([N+](=O)[O-])c2)n1)c1cc(F)c(NS(C)(=O)=O)c(F)c1 [Example 18, 2-(3-Nitro-phenoxy)-oxazole-4-carboxylic acid [1-(3,5-difluoro-4-methanesulfonylamino-phenyl)-ethyl]-amide] |

More lines, now with the values behind:

| SMILES | IC50 |
| --- | --- |
| C[C@@H](NC(=O)c1coc(Oc2cccc3c2CCC3C(F)(F)F)n1)c1cc(F)c(NS(C)(=O)=O)c(F)c1 (stereo in doubt) [Example 57, 2-(1-Trifluoromethyl-indan-4-yloxy)-oxazole-4-carboxylic acid [1-(3,5-difluoro-4-methanesulfonylamino-phenyl)-ethyl]-amide] | 0.33 µM |
| C[C@@H](NC(=O)c1ccc(-c2cccc(C(F)(F)F)c2)s1)c1cc(F)c(NS(C)(=O)=O)c(F)c1 (stereo in doubt) [Example 73, 5-(3-Trifluoromethyl-phenyl)-thiophene-2-carboxylic acid [1-(3,5-difluoro-4-methanesulfonylamino-phenyl)-ethyl]-amide] | 10.5 µM |
| C[C@@H](NC(=O)c1coc(-c2cccc(C(F)(F)F)c2F)n1)c1cc(F)c(NS(C)(=O)=O)c(F)c1 (stereo in doubt) [Example 79, 2-(2-Fluoro-3-trifluoromethyl-phenyl)-oxazole-4-carboxylic acid [1-(3,5-difluoro-4-methanesulfonylamino-phenyl)-ethyl]-amide] | 0.99 µM |
| COc1ccc(-c2nc(C(=O)N[C@H](C)c3cc(F)c(NS(C)(=O)=O)c(F)c3)co2)cc1C(F)(F)F (stereo in doubt) [Example 96, 2-(4-Methoxy-3-trifluoromethyl-phenyl)-oxazole-4-carboxylic acid [1-(3,5-difluoro-4-methanesulfonylamino-phenyl)-ethyl]-amide] | 1.3 µM |
| C[C@@H](NC(=O)c1csc(-c2cc(C3CC3)cc(C3CC3)c2)n1)c1cc(F)c(NS(C)(=O)=O)c(F)c1 (stereo in doubt) [Example 107, 2-(3,5-Dicyclopropyl-phenyl)-thiazole-4-carboxylic acid [1-(3,5-difluoro-4-methanesulfonylamino-phenyl)-ethyl]-amide] | 3 µM |
| C[C@@H](NC(=O)c1csc(Cc2ccc(C(C)(C)C)cc2)n1)c1cc(F)c(NS(C)(=O)=O)c(F)c1 [Example 10, (R)—N-[1-(3,5-Difluoro-4-methanesulfonylamino-phenyl)-ethyl]-2-(4-t-butylbenzyl)-thiazole-4-amide] | 6.4 µM |
| C[C@@H](NC(=O)c1csc(Cc2ccc(F)c(F)c2)n1)c1cc(F)c(NS(C)(=O)=O)c(F)c1 [Example 11, (R)—N-[1-(3,5-Difluoro-4-methanesulfonylamino-phenyl)-ethyl]-2-(3,4-difluorobenzyl)-thiazole-4-amide] | > 10 µM |
| CS(=O)(=O)Nc1c(F)cc(CNC(=O)c2csc(Cc3ccc(F)c(F)c3)n2)cc1F [Example 12, N-[1-(3,5-Difluoro-4-methanesulfonylamino)-benzyl]-2-(3,4-difluorobenzyl)-thiazole-4-amide] | > 10 µM |
| C[C@@H](NC(=O)c1coc(NCC2CCCCC2)n1)c1cc(F)c(NS(C)(=O)=O)c(F)c1 [Example 13, 2-(Cyclohexylmethyl-amino)-oxazole-4-carboxylic acid [1-(3,5-difluoro-4-methanesulfonylamino-phenyl)-ethyl]-amide] | 1.4 µM |
| CS(=O)(=O)Nc1c(F)cc(CNC(=O)c2csc(Oc3ccc(C(F)(F)F)cc3)n2)cc1F [Example 14, 2-(4-Trifluoromethyl-phenoxy)-thiazole-4-carboxylic acid 3,5-difluoro-4-methanesulfonylamino-benzylamide] | 1.5 µM |
